# Legend:
# Assay type in all cases: in vivo
# [1] = system: Amaranthus retroflexus (AMARE); test: Greenhouse herbicidal action of glyphosate test formulations, plant growth assessed on a % scale; conditions: copolymer 600 g/ha where named, 300 l/ha, after 21 days at 20° C.
# Experimental: (§1) Test formulations were prepared with in each case 200 g, 300 g and 500 g of glyphosate and in each case 600 g of the copolymers I to V in 300 l of water. The data by weight refer to 100% active ingredient and 100% adjuvant. An amount of the formulation corresponding to the ratio 300 l/ha was applied in a greenhouse to the plant species Abutilon theophrasti (ABUTH), Sesbania exaltata (SEBEX), Pharbitis purpurea (PHBPU), Galium aparine (GALAP), Amaranthus retroflexus (AMARE) and Echinochloa crus-galli (ECHCG), and, after 21 days at 20° C., the plant growth was assessed according to a % scale.
# (§2) 0% means no effect and 100% means complete destruction of the types of plant.
# Galium aparine (GALAP) = test: as above; conditions: copolymer 600 g/ha where named, 300 l/ha, after 21 days at 20° C.
# Experimental: as §1, §2
# [2] = system: Abutilon theophrasti (ABUTH); test: as above; conditions: copolymer 600 g/ha where named, 300 l/ha, after 21 days at 20° C.
# Experimental: as §1, §2
# [3] = system: Pharbitis purpurea (PHBPU); test: as above; conditions: copolymer 600 g/ha where named, 300 l/ha, after 21 days at 20° C.
# Experimental: as §1, §2
# [4] = system: Sesbania exaltata (SEBEX); test: as above; conditions: copolymer 600 g/ha where named, 300 l/ha, after 21 days at 20° C.
# Experimental: as §1, §2
# [5] = system: Echinochloa crus-galli (ECHCG); test: as above; conditions: copolymer 600 g/ha where named, 300 l/ha, after 21 days at 20° C.
# Experimental: as §1, §2
# [6] = system: SEBEX, AMARE, GALAP, ABUTH, ECHCG, PHBPU (Total); test: Greenhouse herbicidal action of glyphosate test formulations, total over the six plant species; conditions: copolymer 600 g/ha where named
# Experimental: as §1, §2
compound,measurement,setting,value
"O=C(O)CNCP(=O)(O)O [Glyphosate, N-phosphonomethylglycine]",herbicidal action AMARE,[1]; glyphosate 200 g/ha,20%
same,herbicidal action AMARE,[1]; glyphosate 300 g/ha,45%
same,herbicidal action AMARE,[1]; glyphosate 500 g/ha,65%
same,herbicidal action GALAP,Galium aparine (GALAP); glyphosate 200 g/ha,5%
same,herbicidal action GALAP,Galium aparine (GALAP); glyphosate 300 g/ha,20%
same,herbicidal action GALAP,Galium aparine (GALAP); glyphosate 500 g/ha,40%
same,herbicidal action ABUTH,[2]; glyphosate 200 g/ha,0%
same,herbicidal action ABUTH,[2]; glyphosate 300 g/ha,10%
same,herbicidal action ABUTH,[2]; glyphosate 500 g/ha,15%
same,herbicidal action PHBPU,[3]; glyphosate 200 g/ha,10%
same,herbicidal action PHBPU,[3]; glyphosate 300 g/ha,20%
same,herbicidal action PHBPU,[3]; glyphosate 500 g/ha,40%
same,herbicidal action SEBEX,"[4]; glyphosate 200 g/ha, 0% no effect, 100% complete destruction",10%
same,herbicidal action SEBEX,[4]; glyphosate 300 g/ha,15%
same,herbicidal action SEBEX,[4]; glyphosate 500 g/ha,30%
same,herbicidal action ECHCG,[5]; glyphosate 200 g/ha,15%
same,herbicidal action ECHCG,[5]; glyphosate 300 g/ha,20%
same,herbicidal action ECHCG,[5]; glyphosate 500 g/ha,40%
same,herbicidal action Total,[6]; glyphosate 200 g/ha,10%
same,herbicidal action Total,[6]; glyphosate 300 g/ha,22%
same,herbicidal action Total,[6]; glyphosate 500 g/ha,38%
